Measured values reported in publication PMC9607578, “Chemopreventive Effect on Human Colon Adenocarcinoma Cells of Styrylquinolines: Synthesis, Cytotoxicity, Proapoptotic Effect and Molecular Docking Analysis” (Molecules, 2022).
Where two headings read alike, the source gives them in different places.

What was measured:
[1] = test system: SW480 cells; experiment: Intracellular ROS production, 2',7'-DCFDA probe; type: cell-based, human; conditions: SW480, 48 h, treated at IC50, mean ± SE
Method: (§1) In order to evaluate the effect of the chosen styrylquinolines on the production of ROS in malignant cells, the 2′,7′-dichlorofluorescein diacetate (2′,7′-DCFDA) probe (Calbiochem, San Diego, CA, USA) was used as described by Kim et al.. Briefly, malignant cells were seeded at a final density of 2.5 × 10^5 cells/well in 6-well tissue culture plates for 24 h at 37 °C in a 5% CO2 atmosphere. […] After treatment, 2′,7′-DCFDA was added to a final concentration of 10 µM and incubated at 37 °C for 30 min. Finally, representative images of each well were taken using a fluorescence microscope (Axio Vert. A1; ZEISS, Jena, Germany) and Zen blue 3.4 software. The cell lysate was obtained from each well, and relative fluorescence units (RFU) were measured at excitation/emission wavelength (Ex/Em) = 485/525 nm using the Varioskan Lux microplate reader (Thermo Fisher Scientific, Waltham, MA, USA). The total protein concentration was quantified with the BCA method using the Pierce^TM BCA kit (Thermo Fisher Scientific, Waltham, MA, USA) to normalize the UFR.

[2] = test system: SW620 cells; experiment: Intracellular ROS production, 2',7'-DCFDA probe; type: cell-based, human; conditions: SW620, 24 h, treated at IC50, mean ± SE
Method: as §1

[3] = test system: SW480 cells; experiment: Cytotoxic activity, sulforhodamine B (SRB) staining; type: cell-based, human; conditions: for IC50: Homo sapiens, SW480, mean ± SE, read-out: SW480 IC50
Method: (§2) For the biological assays, the human colon adenocarcinoma cell line SW480 and its metastatic derivative SW620 were used. Additionally, the nonmalignant cell line HaCaT was used to find the selectivity index of the compounds. All cell lines were obtained by the Colombian Plant Chemistry Group of the Faculty of Exact and Natural Sciences of the University of Antioquia (Medellín, Colombia) from the European Collection of Authenticated Cell Cultures (ECACC, Salisbury, UK). Cells were cultured in a DMEM medium with 4500 mg/L of glucose and L-glutamine (Sigma-Aldrich, Burlington, MA, USA), supplemented with 10% heat-inactivated (56 °C) horse serum (Gibco, Waltham, MA, USA), 1% penicillin/streptomycin (Sigma-Aldrich, Burlington, MA, USA), and 1% non-essential amino acids (Sigma-Aldrich, Burlington, MA, USA). For all experiments, horse serum was reduced to 3%, and the medium was supplemented with […] of transferrin, 5 ng/mL of selenium, and […] of insulin (ITS; Sigma-Aldrich, Burlington, MA, USA). All cell lines were incubated at 37 °C in a 5% CO2 atmosphere. Additionally, cell cultures were constantly monitored with PCR (Sigma-Aldrich, Burlington, MA, USA) for Mycoplasma spp. to control contamination with this agent.
(§3) To evaluate the effect of styrylquinolines on the viability of the SW480, SW620, and HaCaT cell lines, sulforhodamine B (SRB) staining was used. SRB is a colorimetric assay that indirectly estimates the number of living cells based on the ability of SRB to bind to protein components of adherent cells. Briefly, the malignant cell lines were seeded at a final density of 2.0 × 10^4 cells/well, and the nonmalignant cell line was seeded at a final density of 1.5 × 10^4 cells/well in 96-well tissue culture plates. All cell lines were incubated at 37 °C in a 5% CO2 atmosphere for 24 h to enable cell adherence, and they were then treated for 24 and 48 h with increasing concentrations (0.01–160 µM) of the styrylquinolines or their respective precursors (8-hydroxyquinoline and resveratrol), as well as 1% DMSO (negative control) and 5-FU (standard drug). After treatment, cells were fixed with trichloroacetic acid (50% v/v; PanReac AppliChem, Barcelona, Spain) for a period of one hour at 4 °C. After this, the cells were incubated for 30 min at room temperature with 0.4% (w/v) SRB (Sigma-Aldrich, Burlington, MA, USA). To remove unbound SRB, the cells were washed with 1% acetic acid, and the plates were allowed to dry at room temperature. Protein-bound SRB was solubilized with 10 mM Tris-base (Amresco, Cleveland, OH, USA) for 30 min at room temperature under constant agitation, and absorbance was measured at 490 nm in a microplate reader (Bio-Rad iMark^TM, Hercules, CA, USA). Finally, the concentration of the compound that inhibits 50% of cell growth (IC50) and the selectivity index (SI) were determined.

[4] = test system: SW620 cells; experiment: as above; type: cell-based, human; conditions: for IC50: Homo sapiens, SW-620, mean ± SE, read-out: SW620 IC50
Method: as §2, §3

[5] = test system: HaCaT cells; experiment: as above; type: cell-based; conditions: Homo sapiens, mean ± SE, read-out: HaCaT IC50
Method: as §2, §3

[6] = test system: SW480 cells; experiment: Antiproliferative activity, SRB staining, 0-8 days; type: cell-based, human
Method: (§4) The antiproliferative activity of styrylquinolines with higher selective cytotoxicity toward malignant cells was also tested with SRB staining. Briefly, cells were seeded to a final density of 2.5 × 10^3 cells/well in 96-well tissue culture plates and incubated under the same conditions described for cytotoxic activity. After 24 h, the cells were treated with increasing concentrations (5–80 µM) of the selected hybrids or with 1% DMSO (negative control) for 0, 2, 4, 6, and 8 days. Culture media were replaced every 48 h to guarantee the basic nutrients required for cell growth and viability, maintaining the concentrations of each of the selected hybrids. After each incubation time, cells were fixed and stained, and the absorbance was measured as described above.

[7] = test system: SW620 cells; experiment: Antiproliferative activity, SRB staining, 0-8 days; type: cell-based, human
Method: as §4

For Oc1ccc(/C=C/c2ccc3cccc(O)c3n2)cc1O [Compound 3d], the ROS levels [1] was 3.3 ± 0.2 RFU, the ROS levels [2] was 1.8 ± 0.1 RFU and the “SI (IC50 HaCaT / IC50 SW480)” value ([3]; 24 h treatment) was 1.0. For the same compound, the “SI (IC50 HaCaT / IC50 SW480)” value ([3]; 48 h treatment) was 1.9, the IC50 ([3]; 24 h treatment) was 160 ± 16.6 µM and the IC50 ([3]; 48 h treatment) was 42.5 ± 5.2 µM. For the same compound, the “SI (IC50 HaCaT / IC50 SW620)” value ([4]; 24 h treatment) was 3.0, the “SI (IC50 HaCaT / IC50 SW620)” value ([4]; 48 h treatment) was 12.3 and the IC50 ([4]; 24 h treatment) was 54.6 ± 7.5 µM. For the same compound, the IC50 ([4]; 48 h treatment) was 6.4 ± 1.1 µM, the IC50 ([5]; 24 h treatment) was 164 ± 14.1 µM and the IC50 ([5]; 48 h treatment) was 78.9 ± 2.3 µM. The “Concentration required to significantly decrease cell viability percentage from day 2 post-treatment” value ([6]; SW480, day 2) was 40 µM, the “Concentration from which cell viability percentage is decreased to 0% / high percentage of reduction” value ([6]; SW480, treatment up to 8 days) was 40 µM and the “Concentration required to significantly decrease cell viability percentage from day 2 post-treatment” value ([7]; SW620, day 2) was 20 µM. For the same compound, the “Concentration from which cell viability percentage is decreased to 0% / high percentage of reduction” value ([7]; SW620, treatment up to 8 days) was 40 µM.
